Data published in US20230201172A1, “METHODS OF TREATING CFTR RELATED DISEASES AND DISORDERS” (ARIEL PRECISION MEDICINE, INC., priority 2020, published 2023).
Like-named read-outs stand apart in the source and are kept apart here.

Tests used:
F508del-CFTR = target: T1, F508del-CFTR (Homo sapiens, UniProt P13569, DEL508-508); assay: Ussing chamber electrophysiology, acute potentiation of F508del-CFTR current in corrected CF-hBE cells; type: cell-based; conditions: for Maximum efficacy (Emax), relative efficacy: normalized to response of 1 μM ivacaftor (=1.0), cells treated with the three correctors
T1 construct: endogenous in cells; host or cells: CF-hBE (primary human bronchial epithelial cells from CF donors)
T1 sequence (P13569 with tags, fused parts or gaps DEL508-508): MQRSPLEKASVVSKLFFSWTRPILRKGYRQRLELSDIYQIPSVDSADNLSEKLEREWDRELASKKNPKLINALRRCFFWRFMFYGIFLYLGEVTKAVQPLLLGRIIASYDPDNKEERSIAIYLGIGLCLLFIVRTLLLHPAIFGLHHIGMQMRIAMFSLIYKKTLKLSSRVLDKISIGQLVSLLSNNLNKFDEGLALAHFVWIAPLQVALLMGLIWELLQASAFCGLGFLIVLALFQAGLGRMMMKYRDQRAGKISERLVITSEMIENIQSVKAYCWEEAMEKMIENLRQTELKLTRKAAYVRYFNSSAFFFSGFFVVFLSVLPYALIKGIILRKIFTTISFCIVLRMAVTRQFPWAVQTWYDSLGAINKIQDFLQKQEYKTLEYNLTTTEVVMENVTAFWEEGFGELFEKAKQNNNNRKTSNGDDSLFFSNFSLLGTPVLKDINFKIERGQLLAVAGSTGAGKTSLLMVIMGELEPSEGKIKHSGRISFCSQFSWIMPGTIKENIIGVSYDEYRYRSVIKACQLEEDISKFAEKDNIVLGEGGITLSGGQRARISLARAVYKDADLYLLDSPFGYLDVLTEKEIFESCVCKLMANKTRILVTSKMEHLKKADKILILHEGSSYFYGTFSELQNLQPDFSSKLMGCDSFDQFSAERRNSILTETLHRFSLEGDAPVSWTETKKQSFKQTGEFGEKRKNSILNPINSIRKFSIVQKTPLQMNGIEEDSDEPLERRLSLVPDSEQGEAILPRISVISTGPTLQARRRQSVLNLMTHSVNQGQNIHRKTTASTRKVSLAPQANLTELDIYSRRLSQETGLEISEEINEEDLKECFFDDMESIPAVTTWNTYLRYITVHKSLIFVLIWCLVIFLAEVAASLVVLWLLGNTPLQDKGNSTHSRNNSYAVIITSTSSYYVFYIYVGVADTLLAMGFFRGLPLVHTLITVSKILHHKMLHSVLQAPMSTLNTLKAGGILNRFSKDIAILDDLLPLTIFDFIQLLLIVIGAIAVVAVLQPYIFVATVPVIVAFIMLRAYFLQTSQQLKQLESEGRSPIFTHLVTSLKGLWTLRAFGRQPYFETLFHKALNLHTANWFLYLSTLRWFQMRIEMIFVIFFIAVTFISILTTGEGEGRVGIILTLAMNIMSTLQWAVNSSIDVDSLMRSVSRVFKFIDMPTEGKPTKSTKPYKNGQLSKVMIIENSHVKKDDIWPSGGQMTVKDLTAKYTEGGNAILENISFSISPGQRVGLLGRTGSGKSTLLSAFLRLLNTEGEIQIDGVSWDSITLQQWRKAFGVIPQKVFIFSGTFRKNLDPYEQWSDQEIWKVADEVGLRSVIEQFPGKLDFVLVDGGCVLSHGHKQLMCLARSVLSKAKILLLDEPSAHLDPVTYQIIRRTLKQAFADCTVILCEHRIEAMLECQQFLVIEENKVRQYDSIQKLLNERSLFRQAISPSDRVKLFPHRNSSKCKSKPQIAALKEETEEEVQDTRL
Experimental: Methods: […] Electrophysiology assays were conducted in an Ussing chamber in which corrected cells were treated with ascending concentrations of […] (0.001-10 μM) or ivacaftor (0.0003-1.0 μM). […] FIG. 1 legend: Ussing assay dose-response curves for potentiation of F508del-CFTR current following acute addition of ivacaftor (0.0003-1.0 μM, black circles) and […] (0.001-10 μM, blue squares labeled FDL176). Cells were corrected with lumacaftor (left), tezacaftor (middle), or FDL169 (right), each at 3 μM. For each corrector treatment group, dose response data for ivacaftor and […] were normalized to the response following activation with 1 μM ivacaftor (with matched corrector). Error bars represent SEM. CF-hBE=cystic fibrosis primary human bronchial epithelial cells; CFTR=cystic fibrosis transmembrane conductance regulator; SEM=standard error of the mean.

[1] = cystic fibrosis patients with comorbid pancreatic diseases (Carrion et al. 2018); cited from earlier work
G551D variant = G551D variant (Homo sapiens, UniProt P13569, G551D); assay: Potentiator EC50 for the G551D CFTR variant; type: cell-based
Chain of G551D variant (P13569 whole entry G551D): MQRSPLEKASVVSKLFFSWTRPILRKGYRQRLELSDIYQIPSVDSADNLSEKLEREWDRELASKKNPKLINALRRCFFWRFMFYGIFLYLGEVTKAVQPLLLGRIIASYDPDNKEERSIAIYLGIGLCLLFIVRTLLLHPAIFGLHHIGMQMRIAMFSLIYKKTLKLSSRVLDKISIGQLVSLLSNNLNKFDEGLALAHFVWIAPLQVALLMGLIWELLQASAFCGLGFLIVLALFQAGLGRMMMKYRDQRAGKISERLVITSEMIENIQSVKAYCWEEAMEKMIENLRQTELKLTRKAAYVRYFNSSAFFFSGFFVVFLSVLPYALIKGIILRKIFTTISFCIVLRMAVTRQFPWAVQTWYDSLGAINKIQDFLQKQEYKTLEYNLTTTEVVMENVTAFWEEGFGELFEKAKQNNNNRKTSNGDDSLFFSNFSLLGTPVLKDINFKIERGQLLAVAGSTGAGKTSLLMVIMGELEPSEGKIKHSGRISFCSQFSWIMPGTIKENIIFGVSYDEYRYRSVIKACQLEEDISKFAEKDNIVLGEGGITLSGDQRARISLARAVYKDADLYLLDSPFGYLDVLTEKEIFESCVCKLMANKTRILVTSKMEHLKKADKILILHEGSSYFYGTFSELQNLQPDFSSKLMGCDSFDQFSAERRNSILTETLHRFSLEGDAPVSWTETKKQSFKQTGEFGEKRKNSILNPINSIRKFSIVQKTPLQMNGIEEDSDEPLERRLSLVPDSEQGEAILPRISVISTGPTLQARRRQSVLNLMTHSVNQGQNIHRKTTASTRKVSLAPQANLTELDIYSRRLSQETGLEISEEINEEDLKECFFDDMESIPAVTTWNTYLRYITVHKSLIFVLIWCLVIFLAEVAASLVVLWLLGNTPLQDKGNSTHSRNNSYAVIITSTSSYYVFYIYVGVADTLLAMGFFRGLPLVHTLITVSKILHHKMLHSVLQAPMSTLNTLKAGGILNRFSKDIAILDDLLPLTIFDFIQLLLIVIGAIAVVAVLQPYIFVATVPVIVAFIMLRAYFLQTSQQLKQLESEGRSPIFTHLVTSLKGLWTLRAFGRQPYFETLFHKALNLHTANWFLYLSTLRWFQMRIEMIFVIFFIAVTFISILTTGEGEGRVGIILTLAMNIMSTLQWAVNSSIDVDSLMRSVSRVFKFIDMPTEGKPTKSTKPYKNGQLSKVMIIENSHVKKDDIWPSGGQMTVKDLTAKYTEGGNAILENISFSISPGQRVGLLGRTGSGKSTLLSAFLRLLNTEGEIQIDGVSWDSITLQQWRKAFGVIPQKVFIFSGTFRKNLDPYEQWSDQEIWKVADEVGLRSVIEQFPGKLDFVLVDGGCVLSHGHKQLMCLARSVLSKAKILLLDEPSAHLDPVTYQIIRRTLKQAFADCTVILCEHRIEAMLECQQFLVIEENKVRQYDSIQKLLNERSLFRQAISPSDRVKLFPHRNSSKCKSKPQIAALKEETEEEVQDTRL

[2] = NOAEL exposure in dogs vs human dose
[3] = Total plasma Cmin at steady state, human dose; type: in vivo
[4] = NOAEL exposure in rats vs human dose

Structure (SMILES) | EC50 (F508del-CFTR; corrector treated CF-hBE cells (lumacaftor, tezacaftor, FDL169), acute addition, read-out: EC50 range, potentiation of F508del-CFTR current) [nM] | Maximum efficacy (Emax), relative efficacy (F508del-CFTR) | Recurrence rate of pancreatitis [1] | EC50 (G551D variant) [nM] | Safety margin of NOAEL exposure over a 50 mg human dose [2] [fold] | EC50 (F508del-CFTR; CF-hBE cells corrected with FDL169 3 μM, acute addition (<1 hour), read-out: EC50, potentiation of F508del-CFTR current) [nM] | EC50 (F508del-CFTR; CF-hBE cells corrected with lumacaftor 3 μM, acute addition (<1 hour), read-out: EC50, potentiation of F508del-CFTR current) [nM] | EC50 (F508del-CFTR; CF-hBE cells corrected with tezacaftor 3 μM, acute addition (<1 hour), read-out: EC50, potentiation of F508del-CFTR current) [nM] | Total plasma Cmin at steady state ([3]; 30 mg dose) [nM] | Total plasma Cmin at steady state ([3]; 50 mg dose) [nM] | Safety margin of NOAEL exposure over a 50 mg human dose [4] [fold]
CC(C)(C)c1cc(C(C)(C)C)c(NC(=O)c2c[nH]c3ccccc3c2=O)cc1O [ivacaftor, reference compound] | 3.6 to 9.1 | 1.0 | decreased recurrence rate of pancreatitis |  |  |  |  |  |  |  | 
Cl.O=S(=O)(c1ccccc1)c1ccc2nc(NCc3ccc(-c4ccccn4)cc3)nn2c1 [X0176, 6-(phenylsulfonyl)-N-(4-(pyridin-2-yl)benzyl)-[1,2,4]triazolo[1,5-a]pyridin-2-amine hydrochloride] |  | 1.0 |  | 2600 | 1.1 | 204 ± 24.4 | 133 ± 18.1 | 202 ± 44.6 | 2180 | 3170 | 3.4
